Reference: ChEMBL document CHEMBL2010681, “Synthesis and SAR study of 4-arylpiperidines and 4-aryl-1,2,3,6-tetrahydropyridines as 5-HT₂C agonists” (Bioorg Med Chem Lett, 2012)

Key:
[1] = target: T1, 5-hydroxytryptamine receptor 2C (Homo sapiens) (UniProt P28335); assay: Displacement of [3H]-mesulergine from 5HT2C receptor expressed in CHO cell membranes at 10 uM after 90 mins by scintillation counting
T1 sequence (whole entry): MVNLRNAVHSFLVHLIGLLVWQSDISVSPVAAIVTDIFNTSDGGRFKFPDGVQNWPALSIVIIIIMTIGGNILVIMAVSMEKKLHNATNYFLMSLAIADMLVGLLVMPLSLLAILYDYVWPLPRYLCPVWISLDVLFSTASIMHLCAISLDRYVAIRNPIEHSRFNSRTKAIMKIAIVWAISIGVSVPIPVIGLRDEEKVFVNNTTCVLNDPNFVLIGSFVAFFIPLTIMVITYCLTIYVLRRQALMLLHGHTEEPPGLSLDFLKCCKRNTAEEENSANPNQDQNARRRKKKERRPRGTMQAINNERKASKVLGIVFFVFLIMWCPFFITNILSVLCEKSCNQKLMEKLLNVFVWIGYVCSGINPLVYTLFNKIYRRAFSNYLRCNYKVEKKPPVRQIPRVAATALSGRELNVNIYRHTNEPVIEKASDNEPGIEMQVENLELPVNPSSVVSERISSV

[2] = target: T1, 5-hydroxytryptamine receptor 2C (Homo sapiens); assay: Displacement of [3H]-mesulergine from 5HT2C receptor expressed in CHO cell membranes at 1 uM after 90 mins by scintillation counting
[3] = target: T2, 5-hydroxytryptamine receptor 2C (Homo sapiens, UniProt P28335); assay: Displacement of [3H]-mesulergine from 5HT2C receptor expressed in CHO cell membranes after 90 mins by scintillation counting
T2 sequence (P28335 whole entry): T1 sequence (whole entry)

[4] = target: T2, 5-hydroxytryptamine receptor 2C; assay: Agonist activity at 5HT2C receptor expressed in CHO cells by fluorescence based calcium mobilization assay; format: functional, cell-based
[5] = target: T2, 5-hydroxytryptamine receptor 2C; assay: Displacement of [3H]-mesulergine from 5HT2C receptor expressed in CHO cell membranes using 11 concentration of ligand after 90 mins by scintillation counting using complete competition binding curves analysis

SMILES	inhibition [1]	inhibition [2]	Ki [3]	EC50 ([4]; cho)	EC50 ([4]; read-out: EC50)	Ki [5]
COc1ccccc1C1CCNCC1.Cl	74%	23%	1800 nM	Not Active	–	–
Cl.Oc1cccc(C2CCNCC2)c1	–	–	> 10000 nM	Not Active	–	–
Clc1ccccc1C1=CCNCC1.O=C(O)C(F)(F)F	–	–	–	Not Active	–	–
FC(F)(F)c1cccc(C2=CCNCC2)c1	93%	65%	298 nM	–	158 nM	365 nM
Cl.c1ccc(C2CCNCC2)cc1	16%	6%	> 10000 nM	Not Active	–	–
Clc1ccc(C2=CCNCC2)cc1	62%	17%	3100 nM	–	1760 nM	–
c1ccc2c(C3CCNCC3)c[nH]c2c1	92%	60%	366 nM	–	128 nM	612 nM
Brc1ccc(C2=CCNCC2)cc1	65%	22%	2540 nM	–	3520 nM	–
C1=C(c2ccccc2)CCNC1	42%	9%	7180 nM	–	2450 nM	–
Cl.Clc1ccc(C2CCNCC2)cc1	–	–	> 10000 nM	Not Active	–	–
COc1ccc(C2CCNCC2)cc1.Cl	9%	3%	> 10000 nM	Not Active	–	–
Cc1ccc(C2CCNCC2)cc1.Cl	33%	9%	> 10000 nM	Not Active	–	–
CN(C)c1ccc(C2CCNCC2)cc1.Cl	–	–	> 10000 nM	Not Active	–	–
Cc1ccccc1C1CCNCC1.Cl	65%	10%	3170 nM	Not Active	–	–
Cl.FC(F)(F)c1ccccc1C1CCNCC1	–	–	826 nM	Not Active	–	–
Cl.Clc1ccccc1C1CCNCC1	–	–	–	Not Active	–	–
Clc1cccc(C2CCNCC2)c1	83%	37%	931 nM	–	790 nM	1430 nM
O=C(O)C(F)(F)F.c1cc2c(c(C3CCNCC3)c1)CCCC2	–	–	55 nM	Not Active	–	43 nM
COc1cccc(C2CCNCC2)c1.Cl	–	–	6190 nM	Not Active	–	–
O=C(O)C(F)(F)F.c1ccc2c(C3CCNCC3)cccc2c1	–	–	60 nM	Not Active	–	72 nM
Cl.Fc1ccc(C2CCNCC2)cc1	–	–	> 10000 nM	Not Active	–	–
Cc1cccc(C2CCNCC2)c1C.Cl	–	–	1160 nM	Not Active	–	–
Clc1cccc(C2=CCNCC2)c1	95%	65%	280 nM	–	72.3 nM	318 nM
Cc1cccc(C2CCNCC2)c1	63%	15%	3130 nM	–	2000 nM	–
FC(F)(F)c1cccc(C2CCNCC2)c1	77%	26%	1550 nM	–	1260 nM	–
C1=C(c2c[nH]c3ccccc23)CCNC1	95%	64%	296 nM	–	163 nM	632 nM
Cl.FC(F)(F)c1ccc(C2CCNCC2)cc1	–	–	8320 nM	Not Active	–	–
